Assay results taken from article PMC8346053, “Towards Novel 3-Aminopyrazinamide-Based Prolyl-tRNA Synthetase Inhibitors: In Silico Modelling, Thermal Shift Assay and Structural Studies” (International Journal of Molecular Sciences, 2021).
Several values for one entry are separate records, joined by “and”; a condition that tells them apart may be missing. Equal entries are not always repeated.

Target: HcProRS
Test: not given
Design: method as in PMID 28501621
Details: in the presence of Pro; cited from earlier work

Compound	Kd
O=C(NC1Cc2ccccc2C1)c1nccnc1NC(=O)C1CCCCC1 [2a, 3-(cyclohexanecarboxamido)-N-(2,3-dihydro-1H-inden-2-yl)pyrazine-2-carboxamide, reference compound]	0.76 nM

Test system: HcProRS
Test: not given
Design: method as in PMID 28501621
Details: ATP/PPi exchange assay in vitro; read-out: IC50, HcProRS inhibitory activity; cited from earlier work

Compound	IC50
O=C(NC1Cc2ccccc2C1)c1nccnc1NC(=O)C1CCCCC1 [2a, 3-(cyclohexanecarboxamido)-N-(2,3-dihydro-1H-inden-2-yl)pyrazine-2-carboxamide, reference compound]	12 nM

Test system: HcProRS versus ThrRS
Test: not given
Design: method as in PMID 28501621
Details: reportedly; cited from earlier work

Compound	selectivity for HcProRS versus ThrRS
O=C(NC1Cc2ccccc2C1)c1nccnc1NC(=O)C1CCCCC1 [2a, 3-(cyclohexanecarboxamido)-N-(2,3-dihydro-1H-inden-2-yl)pyrazine-2-carboxamide, reference compound]	2500 fold

Target: T1, recombinant HcProRS (Homo sapiens, UniProt P07814)
T1 construct: SUMO (N, cleaved yes); made in house; host or cells: E. coli Rosetta 2 (DE3) pLysS
T1 sequence (P07814 1001-1512): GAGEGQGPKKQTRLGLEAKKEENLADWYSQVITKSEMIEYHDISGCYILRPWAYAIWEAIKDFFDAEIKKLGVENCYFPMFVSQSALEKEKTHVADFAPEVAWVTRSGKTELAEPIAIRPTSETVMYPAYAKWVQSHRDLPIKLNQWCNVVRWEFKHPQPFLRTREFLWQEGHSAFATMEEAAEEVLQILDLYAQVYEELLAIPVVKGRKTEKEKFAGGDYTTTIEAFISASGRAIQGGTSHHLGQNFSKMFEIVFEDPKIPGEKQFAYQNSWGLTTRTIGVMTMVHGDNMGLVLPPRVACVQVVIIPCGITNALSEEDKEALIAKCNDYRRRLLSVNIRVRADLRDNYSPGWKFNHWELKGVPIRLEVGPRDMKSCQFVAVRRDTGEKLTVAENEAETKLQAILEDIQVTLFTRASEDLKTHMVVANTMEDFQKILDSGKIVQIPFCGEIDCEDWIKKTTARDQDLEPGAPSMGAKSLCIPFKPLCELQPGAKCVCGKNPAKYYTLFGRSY
Test: fluorescence-based thermal shift assay (TSA)
Type: binding
Details: 100 µM compound, 3.45 µM HcProRS, 1 mM Pro; reference Tm with Pro only 60.20
Experimental: Compound binding usually helps to stabilize the protein due to protein-ligand interactions, resulting in an increase of the melting temperature (Tm) of the target protein during the thermal denaturation process. Each compound was pre-tested at 100 µM concentration against 3.45 µM HcProRS in the absence and presence of 1 mM Pro. The ∆Tm was calculated based on the difference between the Tm values of HcProRS with and without compound. […] In the presence of the natural substrate Pro, the Tm of HcProRS increased by 4 °C. […] In a second-tier characterization, the Tm-based EC50 values of these five hits were determined. […] This is in good agreement with the prior reported improved binding affinity and inhibitory activity of 2a in the presence of Pro when compared to the corresponding values obtained without Pro [16].
A total of 0.2 mg/mL HcProRS (corresponding to 3.45 µM) was incubated with various concentrations of different compounds in the absence or presence of 1 mM L-Pro with 1x thermal shift dye (Life Technologies, California, USA) in reaction buffer containing 50 mM HEPES pH 7.0, 150 mM KCl and 10% (v/v) ethylene glycol. Aliquots (20 µL) were transferred to a 96-well PCR plate in triplicate. After centrifugation to remove air bubbles, the plate was measured in Applied Biosystems® Protein Thermal Shift machine and subjected to a thermal gradient from 4 °C to 95 °C with the increasing rate of 0.05 °C/s. The fluorescence was detected by Protein Thermal Shift™ Software (Life Technologies, California, USA). Data analysis was performed by Boltzmann sigmoidal fitting to calculate melting temperature (Tm).
Figure S2. Dose-response melting curves of HcProRS in the presence of compound and 1 mM Pro. The melting temperature (Tm) at each compound concentration was determined by TSA with 3.45 µM of HcProRS. The reported EC50 values are based on the fitted curves. All reactions were performed in triplicate, the average values and standard errors are shown.
(1 picture or pasted object on this page, not shown here)

Compound	Tm with 1 mM L-Pro
O=C(NCc1ccccc1Cl)c1nccnc1NCc1ccccc1Cl [3b]	64.92 °C
O=C(NC1Cc2ccccc2C1)c1nccnc1NC(=O)C1CCCCC1 [2a, 3-(cyclohexanecarboxamido)-N-(2,3-dihydro-1H-inden-2-yl)pyrazine-2-carboxamide, reference compound]	73.35 °C
Cc1ccccc1CNC(=O)c1nccnc1NCc1ccccc1C [3c]	62.72 °C
Nc1nccnc1C(=O)O [3-NH2-POA, 3-aminopyrazinoic acid, reference compound]	59.50 °C
O=C(NCc1ccc(F)cc1)c1nccnc1NCc1ccc(F)cc1 [3a]	58.21 °C
O=C(O)c1cnccn1 [POA, pyrazinoic acid, reference compound]	59.06 °C
NC(=O)c1cnccn1 [PZA, pyrazinamide]	59.04 °C

The next lines start with the values.

Tm with 1 mM L-Pro	Compound
60.42 °C	NC(=O)c1nccnc1NCc1cccc(Cl)c1 [4b]
58.33 °C	COc1ccc(CNc2nccnc2C(N)=O)cc1 [4f]
59.09 °C	Cc1ccc(CNc2nccnc2C(N)=O)cc1 [4g]
60.30 °C	NC(=O)c1nccnc1NCc1ccccc1F [4i]
59.36 °C	NC(=O)c1nccnc1NCc1ccccc1 [4a]
58.70 °C	NC(=O)c1nccnc1NCc1ccc(Cl)cc1 [4e]
67.12 °C	NC(=O)c1nccnc1NCc1ccccc1C(F)(F)F [4j]
63.33 °C	Cc1ccccc1CNc1nccnc1C(N)=O [4d]
58.48 °C	COc1ccc(CNc2nccnc2C(N)=O)c(OC)c1 [4k]
57.47 °C	NC(=O)c1nccnc1NCc1ccc(Cl)c(Cl)c1 [4c]
62.47 °C	NC(=O)c1nccnc1NCc1ccccc1Cl [4h]

Same assay, conditions: 100 µM compound, 3.45 µM HcProRS, absence of Pro; difference of Tm with and without compound

Compound	∆Tm without L-Pro
O=C(NCc1ccccc1Cl)c1nccnc1NCc1ccccc1Cl [3b]	−0.10 °C
Cc1ccccc1CNC(=O)c1nccnc1NCc1ccccc1C [3c]	−0.90 °C
Nc1nccnc1C(=O)O [3-NH2-POA, 3-aminopyrazinoic acid, reference compound]	−0.28 °C
O=C(NCc1ccc(F)cc1)c1nccnc1NCc1ccc(F)cc1 [3a]	−0.90 °C
O=C(O)c1cnccn1 [POA, pyrazinoic acid, reference compound]	−0.63 °C
NC(=O)c1cnccn1 [PZA, pyrazinamide]	−0.09 °C

More lines, now with the values ahead:

∆Tm without L-Pro	Compound
−0.77 °C	NC(=O)c1nccnc1NCc1cccc(Cl)c1 [4b]
+0.19 °C	COc1ccc(CNc2nccnc2C(N)=O)cc1 [4f]
−0.39 °C	Cc1ccc(CNc2nccnc2C(N)=O)cc1 [4g]
−0.69 °C	NC(=O)c1nccnc1NCc1ccccc1F [4i]
−0.35 °C	NC(=O)c1nccnc1NCc1ccccc1 [4a]
−1.09 °C	NC(=O)c1nccnc1NCc1ccc(Cl)cc1 [4e]
−0.24 °C	Cc1ccccc1CNc1nccnc1C(N)=O [4d]
−0.07 °C	COc1ccc(CNc2nccnc2C(N)=O)c(OC)c1 [4k]
−1.58 °C	NC(=O)c1nccnc1NCc1ccc(Cl)c(Cl)c1 [4c]

Same assay, conditions: 100 µM compound, 3.45 µM HcProRS, absence of Pro; reference Tm of HcProRS 56.15

Compound	Tm without L-Pro
O=C(NCc1ccccc1Cl)c1nccnc1NCc1ccccc1Cl [3b]	56.05 °C
O=C(NC1Cc2ccccc2C1)c1nccnc1NC(=O)C1CCCCC1 [2a, 3-(cyclohexanecarboxamido)-N-(2,3-dihydro-1H-inden-2-yl)pyrazine-2-carboxamide, reference compound]	63.15 °C
Cc1ccccc1CNC(=O)c1nccnc1NCc1ccccc1C [3c]	55.25 °C
Nc1nccnc1C(=O)O [3-NH2-POA, 3-aminopyrazinoic acid, reference compound]	55.87 °C
O=C(NCc1ccc(F)cc1)c1nccnc1NCc1ccc(F)cc1 [3a]	55.25 °C
O=C(O)c1cnccn1 [POA, pyrazinoic acid, reference compound]	55.52 °C
NC(=O)c1cnccn1 [PZA, pyrazinamide]	56.06 °C

Further lines, results first:

Tm without L-Pro	Compound
55.38 °C	NC(=O)c1nccnc1NCc1cccc(Cl)c1 [4b]
56.34 °C	COc1ccc(CNc2nccnc2C(N)=O)cc1 [4f]
55.76 °C	Cc1ccc(CNc2nccnc2C(N)=O)cc1 [4g]
55.46 °C	NC(=O)c1nccnc1NCc1ccccc1F [4i]
55.80 °C	NC(=O)c1nccnc1NCc1ccccc1 [4a]
55.06 °C	NC(=O)c1nccnc1NCc1ccc(Cl)cc1 [4e]
58.13 °C	NC(=O)c1nccnc1NCc1ccccc1C(F)(F)F [4j]
55.91 °C	Cc1ccccc1CNc1nccnc1C(N)=O [4d]
56.08 °C	COc1ccc(CNc2nccnc2C(N)=O)c(OC)c1 [4k]
54.57 °C	NC(=O)c1nccnc1NCc1ccc(Cl)c(Cl)c1 [4c]
57.04 °C	NC(=O)c1nccnc1NCc1ccccc1Cl [4h]

Same assay, conditions: 100 µM compound, 3.45 µM HcProRS; versus HcProRS with 1 mM Pro only

Compound	∆Tm with 1 mM L-Pro
O=C(NCc1ccccc1Cl)c1nccnc1NCc1ccccc1Cl [3b]	+4.72 °C
Cc1ccccc1CNC(=O)c1nccnc1NCc1ccccc1C [3c]	+2.52 °C
Nc1nccnc1C(=O)O [3-NH2-POA, 3-aminopyrazinoic acid, reference compound]	−0.70 °C
O=C(NCc1ccc(F)cc1)c1nccnc1NCc1ccc(F)cc1 [3a]	−1.99 °C
O=C(O)c1cnccn1 [POA, pyrazinoic acid, reference compound]	−1.14 °C
NC(=O)c1cnccn1 [PZA, pyrazinamide]	−1.16 °C

Second part, the molecule after the results:

∆Tm with 1 mM L-Pro	Compound
+0.22 °C	NC(=O)c1nccnc1NCc1cccc(Cl)c1 [4b]
−1.87 °C	COc1ccc(CNc2nccnc2C(N)=O)cc1 [4f]
−1.11 °C	Cc1ccc(CNc2nccnc2C(N)=O)cc1 [4g]
+0.10 °C	NC(=O)c1nccnc1NCc1ccccc1F [4i]
−0.84 °C	NC(=O)c1nccnc1NCc1ccccc1 [4a]
−1.5 °C	NC(=O)c1nccnc1NCc1ccc(Cl)cc1 [4e]
+6.92 °C	NC(=O)c1nccnc1NCc1ccccc1C(F)(F)F [4j]
+3.13 °C	Cc1ccccc1CNc1nccnc1C(N)=O [4d]
−1.72 °C	COc1ccc(CNc2nccnc2C(N)=O)c(OC)c1 [4k]
−2.73 °C	NC(=O)c1nccnc1NCc1ccc(Cl)c(Cl)c1 [4c]
+2.27 °C	NC(=O)c1nccnc1NCc1ccccc1Cl [4h]

Same assay, conditions: 1 mM Pro, 3.45 µM HcProRS; read-out: EC50 (Tm-based) with 1 mM L-Pro

Compound	EC50
O=C(NCc1ccccc1Cl)c1nccnc1NCc1ccccc1Cl [3b]	3.77 ± 0.85 µM
O=C(NC1Cc2ccccc2C1)c1nccnc1NC(=O)C1CCCCC1 [2a, 3-(cyclohexanecarboxamido)-N-(2,3-dihydro-1H-inden-2-yl)pyrazine-2-carboxamide, reference compound]	3.74 ± 0.67 µM
Cc1ccccc1CNC(=O)c1nccnc1NCc1ccccc1C [3c]	7.34 ± 1.66 µM

Further lines, results first:

EC50	Compound
15.3 ± 1.04 µM	NC(=O)c1nccnc1NCc1ccccc1C(F)(F)F [4j]
91.1 ± 18.4 µM	Cc1ccccc1CNc1nccnc1C(N)=O [4d]
13.6 ± 3.27 µM	NC(=O)c1nccnc1NCc1ccccc1Cl [4h]

Same assay, conditions: 1 mM Pro, no compound

Compound	increase of Tm of HcProRS by natural substrate Pro
O=C(O)[C@@H]1CCCN1 [Pro, proline]	4 °C

Same assay, conditions: TSA EC50 with 1 mM Pro, relative to 3c

Compound	fold lower EC50 relative to 3c
O=C(NCc1ccccc1Cl)c1nccnc1NCc1ccccc1Cl [3b]	2 fold

Same assay, conditions: TSA EC50 with 1 mM Pro, relative to 4h

Compound	fold lower EC50 compared with 4h
O=C(NCc1ccccc1Cl)c1nccnc1NCc1ccccc1Cl [3b]	3.6 fold

Same assay, conditions: TSA EC50 with 1 mM Pro, relative to 4d

Compound	fold better (lower) EC50 compared with 4d
Cc1ccccc1CNC(=O)c1nccnc1NCc1ccccc1C [3c]	12.4 fold
NC(=O)c1nccnc1NCc1ccccc1C(F)(F)F [4j]	6 fold and 7 fold
NC(=O)c1nccnc1NCc1ccccc1Cl [4h]	6 fold and 7 fold

Same assay, conditions: full datasets, with and without Pro

Compound	effect on Tm (in words)
Nc1nccnc1C(=O)O [3-NH2-POA, 3-aminopyrazinoic acid, reference compound]	no effect on Tm
O=C(O)c1cnccn1 [POA, pyrazinoic acid, reference compound]	no effect on Tm
NC(=O)c1cnccn1 [PZA, pyrazinamide]	no effect on Tm

Same assay, conditions: no Pro, 3.45 µM HcProRS; read-out: EC50 (Tm-based) in the absence of Pro

Compound	EC50
O=C(NC1Cc2ccccc2C1)c1nccnc1NC(=O)C1CCCCC1 [2a, 3-(cyclohexanecarboxamido)-N-(2,3-dihydro-1H-inden-2-yl)pyrazine-2-carboxamide, reference compound]	30.3 ± 3.63 µM
